# According to publication PMC6582940 (Molecular pharmaceutics, 2018):
# Where a name gives a salt, the structure may show the parent alone.
# Target: ABCB1 (Homo sapiens, UniProt P08183)
# Assay: competition of […]IAAP photoaffinity labeling in ABCB1 membranes
# Assay type: binding
# Chain of ABCB1 (P08183 whole entry): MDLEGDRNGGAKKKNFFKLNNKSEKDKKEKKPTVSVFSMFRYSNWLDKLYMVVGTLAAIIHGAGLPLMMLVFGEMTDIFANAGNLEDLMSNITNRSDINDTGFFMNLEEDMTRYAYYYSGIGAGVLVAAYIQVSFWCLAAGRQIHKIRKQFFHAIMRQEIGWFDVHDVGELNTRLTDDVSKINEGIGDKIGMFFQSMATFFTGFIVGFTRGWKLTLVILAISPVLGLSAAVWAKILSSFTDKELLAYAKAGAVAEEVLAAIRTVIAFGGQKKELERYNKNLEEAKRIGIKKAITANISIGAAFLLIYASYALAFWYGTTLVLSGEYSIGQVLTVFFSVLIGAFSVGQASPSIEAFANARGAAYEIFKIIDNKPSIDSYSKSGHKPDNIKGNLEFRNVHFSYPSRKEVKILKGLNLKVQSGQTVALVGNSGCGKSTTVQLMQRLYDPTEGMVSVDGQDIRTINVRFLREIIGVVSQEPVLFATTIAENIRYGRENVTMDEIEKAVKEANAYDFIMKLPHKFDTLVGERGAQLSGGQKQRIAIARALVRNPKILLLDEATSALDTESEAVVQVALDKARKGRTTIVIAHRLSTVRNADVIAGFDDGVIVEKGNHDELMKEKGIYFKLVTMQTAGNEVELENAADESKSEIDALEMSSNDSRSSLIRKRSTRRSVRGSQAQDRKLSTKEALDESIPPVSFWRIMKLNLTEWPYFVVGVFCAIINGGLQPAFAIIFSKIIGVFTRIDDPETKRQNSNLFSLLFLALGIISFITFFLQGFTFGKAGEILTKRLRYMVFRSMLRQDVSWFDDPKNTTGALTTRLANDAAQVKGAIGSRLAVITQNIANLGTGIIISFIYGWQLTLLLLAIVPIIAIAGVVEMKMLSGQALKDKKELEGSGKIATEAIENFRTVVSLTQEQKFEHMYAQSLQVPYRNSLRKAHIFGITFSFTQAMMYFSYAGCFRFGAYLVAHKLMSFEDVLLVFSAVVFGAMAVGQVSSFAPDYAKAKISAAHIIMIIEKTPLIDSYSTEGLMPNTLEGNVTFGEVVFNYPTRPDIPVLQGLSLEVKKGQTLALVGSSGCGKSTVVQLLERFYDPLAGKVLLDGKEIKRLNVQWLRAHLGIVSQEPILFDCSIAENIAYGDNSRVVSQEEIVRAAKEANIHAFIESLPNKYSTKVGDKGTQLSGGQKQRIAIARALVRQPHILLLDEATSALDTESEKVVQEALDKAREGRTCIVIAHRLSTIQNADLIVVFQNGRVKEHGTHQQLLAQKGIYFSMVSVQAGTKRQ
smiles,measurement,value
"COc1ccc(CCC2c3cc(OCc4ccccc4)c(OC)cc3CCN2C)cc1OCc1ccccc1 (racemic) [isoquinoline 2, (±)-7-benzyloxy-1-(3-benzyloxy-4-methoxyphenethyl)-1,2,3,4-tetrahydro-6-methoxy-2-methylisoquinoline oxalate]",IC50,63 ± 12 nM
